Consider 7 compounds from patent publication US20250326771A1, “PIPERAZINE DERIVATIVES USEFUL IN HIV THERAPY” (VIIV HEALTHCARE COMPANY, priority 2022, published 2025).

One assay addresses cIAP1-BIR2 (Homo sapiens (Human), UniProt Q13490). Nature of the assay: BIR binding assay (FRET competition), cIAP1 BIR2. The essentials: (§1)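 Compounds tested as 15-point, 3-fold series displacing 200 nM AlexaFluor647-labelled SMAC peptide from His-tagged BIR domain (cIAP1-BIR3 50 nM; cIAP1-BIR2 and cIAP2-BIR2 325 nM; XIAP-BIR3 100 nM), pH 7.4, 60 min. Eu-W1024 (2 nM) added 30 min; emission ratio fitted for IC50.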

A further assay deals with XIAP-BIR3 (Homo sapiens (Human), UniProt P98170). Nature of the assay: BIR binding assay (FRET competition), XIAP BIR3. As to conditions: for XIAP BIR3 vs BIR2 separation window: fold separation (FS) for XIAP. The method in brief: as §1
The target of a further assay is XIAP-BIR2 (Homo sapiens (Human), UniProt P98170). In words: BIR binding assay (FRET competition), XIAP BIR2. As to conditions: read-out: XIAP BIR2 (pIC50) (converted). The method in brief:
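Competitive TR-FRET used His-tagged XIAP-BIR2 (200 nM) and 200 nM AlexaFluor647-labelled AVPIAQKSE SMAC peptide in HEPES buffer pH 7.4 with CHAPS, glycerol and DTT, incubated 60 min before 30 min with 2 nM Eu-W1024. The 615/665 nm ratio from a 15-point, 3-fold series was fit with a four-parameter model for IC50/pIC50.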

A further assay deals with cIAP1-BIR3 (Homo sapiens (Human), UniProt Q13490). Nature of the assay: BIR binding assay (FRET competition), cIAP1 BIR3. The following applies: for cIAP1 BIR3 vs BIR2 separation window: fold separation (FS) for cIAP1. The method in brief:
as §1

The next assay addresses cIAP2-BIR2 (Homo sapiens (Human), UniProt Q13489). In words: BIR binding assay (FRET competition), cIAP2 BIR2. The essentials:
as §1

The subject of assay [1] is Jurkat HIV-luciferase clones. In words: Jurkat latency reversal assay. It is filed as cell-based. The following applies: Homo sapiens, 48 h; Jurkat latency reversal assay potency; read-out: Jurkat pEC50 (converted). The essentials: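 Three pooled Jurkat reporter clones, each with one or two integrated HIV-luciferase proviruses, 5,000 cells/well; duplicate 14-point titrations starting at 10 μM; 48 h, 37° C, then Steady-Glo luminescence; four-parameter logistic analysis yields EC50 and percent maximal activation against DMSO vehicle.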

The target of a further assay is cIAP2-BIR3 (Homo sapiens (Human), UniProt Q13489). In words: BIR binding assay (FRET competition), cIAP2 BIR3. As to conditions: for cIAP2 BIR3 vs BIR2 separation window: fold separation (FS) for cIAP2.

pIC50: −log10 of the molar value. Read-outs that look alike come from different tables or passages of the source.

Sequence of cIAP2-BIR2 (Q13489 158-242): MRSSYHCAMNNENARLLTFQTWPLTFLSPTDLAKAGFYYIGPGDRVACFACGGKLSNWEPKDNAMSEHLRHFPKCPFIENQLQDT
Sequence of XIAP-BIR3 (P98170 241-356): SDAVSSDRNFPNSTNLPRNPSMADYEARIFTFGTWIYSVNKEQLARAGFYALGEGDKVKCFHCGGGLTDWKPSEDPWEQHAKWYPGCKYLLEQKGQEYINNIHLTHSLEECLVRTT
Sequence of cIAP1-BIR3 (Q13490 253-363): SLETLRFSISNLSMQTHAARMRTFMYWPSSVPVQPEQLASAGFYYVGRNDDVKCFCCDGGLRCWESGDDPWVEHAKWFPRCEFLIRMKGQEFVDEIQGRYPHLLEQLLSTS
Sequence of cIAP1-BIR2 (Q13490 173-257): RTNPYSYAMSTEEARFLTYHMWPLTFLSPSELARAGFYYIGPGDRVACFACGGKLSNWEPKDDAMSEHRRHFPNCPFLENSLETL
Sequence of cIAP2-BIR3 (Q13489 238-349): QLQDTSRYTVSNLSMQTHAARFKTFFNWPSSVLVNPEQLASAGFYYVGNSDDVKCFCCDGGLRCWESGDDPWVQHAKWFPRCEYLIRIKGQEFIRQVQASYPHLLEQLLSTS
Sequence of XIAP-BIR2 (P98170 124-240): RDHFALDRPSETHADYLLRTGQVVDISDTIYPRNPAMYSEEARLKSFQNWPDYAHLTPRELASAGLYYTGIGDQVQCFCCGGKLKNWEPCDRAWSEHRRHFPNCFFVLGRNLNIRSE

In the case of `C[C@@H]1CN(CC(=O)N2CC(C)(C)c3[nH]c(=O)c(Cc4ccc(F)cc4)cc32)[C@@H](CN2CCO[C@H](C(=O)NCC(=O)N3CCN(C[C@H]4CN[C@H](C)CN4CC(=O)N4CC(C)(C)c5[nH]c(=O)c(Cc6ccc(F)cc6)cc54)[C@H](C)C3)C2)CN1` [Compound 159, (S)-4-(((2R,5R)-1-(2-(6-(4-fluorobenzyl)-3,3-dimethyl-5-oxo-2,3,4,5-tetrahydro-1H-pyrrolo[3,2-b]pyridin-1-yl)-2-oxoethyl)-5-methylpiperazin-2-yl)methyl)-N-(2-((R)-4-(((2R,5R)-1-(2-(6-(4-fluorobenzyl)-3,3-dimethyl-5-oxo-2,3,4,5-tetrahydro-1H-pyrrolo[3,2-b]pyridin-1-yl)-2-oxoethyl)-5-methylpiperazin-2-yl)methyl)-3-methylpiperazin-1-yl)-2-oxoethyl)morpholine-2-carboxamide], the pIC50 on cIAP1-BIR2 was 6.00 to 7.65; on XIAP-BIR3, 7.80 to 8.10; at cIAP1-BIR3 it was 7.80 to 8.10; at cIAP2-BIR2, 6.00 to 7.65; at cIAP2-BIR3, 8.10 to 8.86. Further, the “XIAP BIR3 vs BIR2 separation window” value on XIAP-BIR3 was “++++ (FS>10,000)”. For the same compound, the IC50 on XIAP-BIR2 (FRET competition) is 10000 to 51300 nM. For the same compound, the “cIAP1 BIR3 vs BIR2 separation window” value at cIAP1-BIR3 is “++ (1,000>FS>100)”. Also, the EC50 in assay [1] is 63.1 to 316 nM. Further, the “cIAP2 BIR3 vs BIR2 separation window” value at cIAP2-BIR3 is given as “+++ (10,000>FS>1,000)”.
In the case of `C[C@@H]1CN(CC(=O)N2CC(C)(C)c3[nH]c(=O)c(Cc4ccc(F)cc4)cc32)[C@@H](CN2CCN(C(=O)COCCOCCOCC(=O)N3CCN(C[C@H]4CN[C@H](C)CN4CC(=O)N4CC(C)(C)c5[nH]c(=O)c(Cc6ccc(F)cc6)cc54)[C@H](C)C3)C[C@H]2C)CN1` (stereo in doubt) [Example 6, 1,1′-(2,2′-((3R,3′R,6R,6′R)-(((2R,2′R)-(2,2′-((oxybis(ethane-2,1-diyl))bis(oxy))bis(acetyl))bis(2-methylpiperazine-4,1-diyl))bis(methylene))bis(3-methylpiperazine-6,1-diyl))bis(acetyl))bis(6-(4-fluorobenzyl)-3,3-dimethyl-1,2,3,4-tetrahydro-5H-pyrrolo[3,2-b]pyridin-5-one)], the pIC50 at cIAP1-BIR2 was 6.00 to 7.65; on XIAP-BIR3, 8.10 to 8.86; on cIAP1-BIR3, 8.10 to 8.86; on cIAP2-BIR2, 6.00 to 7.65; at cIAP2-BIR3, 8.10 to 8.86. Moreover, the “XIAP BIR3 vs BIR2 separation window” value on XIAP-BIR3 is given as “++++ (FS>10,000)”. The IC50 on XIAP-BIR2 (FRET competition binding) was 10000 to 51300 nM. Further, the “cIAP1 BIR3 vs BIR2 separation window” value at cIAP1-BIR3 is “+++ (10,000>FS>1,000)”. The EC50 in assay [1] was 63.1 to 316 nM. Further, on cIAP2-BIR3, the “cIAP2 BIR3 vs BIR2 separation window” value is listed as “+++ (10,000>FS>1,000)”.
For `C[C@@H]1CN(CC(=O)N2CC(C)(C)c3[nH]c(=O)c(Cc4ccc(F)cc4)cc32)[C@@H](CN2CCC(CNC(=O)c3ccc(C(=O)NCC4CCN(C[C@H]5CN[C@H](C)CN5CC(=O)N5CC(C)(C)c6[nH]c(=O)c(Cc7ccc(F)cc7)cc65)CC4)cc3)CC2)CN1` [Example 101, N^1,N^4-bis((1-(((2R,5R)-1-(2-(6-(4-fluorobenzyl)-3,3-dimethyl-5-oxo-2,3,4,5-tetrahydro-1H-pyrrolo[3,2-b]pyridin-1-yl)-2-oxoethyl)-5-methylpiperazin-2-yl)methyl)piperidin-4-yl)methyl)terephthalamide], the pIC50 at cIAP1-BIR2 is 5.00 to 5.50; at XIAP-BIR3, 7.80 to 8.10; at cIAP1-BIR3, 8.10 to 8.86; at cIAP2-BIR2 it was 5.00 to 5.50; on cIAP2-BIR3, 8.10 to 8.86. Moreover, on XIAP-BIR3, the “XIAP BIR3 vs BIR2 separation window” value is “++++ (FS>10,000)”. Further, at XIAP-BIR2 (FRET competition binding), the IC50 is 10000 to 51300 nM. Moreover, the “cIAP1 BIR3 vs BIR2 separation window” value at cIAP1-BIR3 is “+++ (10,000>FS>1,000)”. In addition, the EC50 in assay [1] is 63.1 to 316 nM. Also, the “cIAP2 BIR3 vs BIR2 separation window” value at cIAP2-BIR3 is “++++ (FS>10,000)”.
In the case of `C[C@@H]1CN(CC(=O)N2CC(C)(C)c3[nH]c(=O)c(Cc4ccc(F)cc4)cc32)[C@@H](CN2CCO[C@H](C(=O)NCC#CC#CCNC(=O)[C@@H]3CN(C[C@H]4CN[C@H](C)CN4CC(=O)N4CC(C)(C)c5[nH]c(=O)c(Cc6ccc(F)cc6)cc54)CCO3)C2)CN1` [Example 93, (2S,2'S)-N,N′-(hexa-2,4-diyne-1,6-diyl)bis(4-(((2R,5R)-1-(2-(6-(4-fluorobenzyl)-3,3-dimethyl-5-oxo-2,3,4,5-tetrahydro-1H-pyrrolo[3,2-b]pyridin-1-yl)-2-oxoethyl)-5-methylpiperazin-2-yl)methyl)morpholine-2-carboxamide)], the pIC50 at cIAP1-BIR2 was 6.00 to 7.65; on XIAP-BIR3, 6.30 to 7.50; on cIAP1-BIR3, 7.80 to 8.10; on cIAP2-BIR2 it was 5.50 to 6.00; at cIAP2-BIR3, 7.80 to 8.10. Further, the “XIAP BIR3 vs BIR2 separation window” value at XIAP-BIR3 is on record as “++++ (FS>10,000)”. Also, the IC50 on XIAP-BIR2 (FRET competition binding) was 10000 to 51300 nM. In addition, the “cIAP1 BIR3 vs BIR2 separation window” value on cIAP1-BIR3 was “++ (1,000>FS>100)”. In addition, in assay [1], the EC50 was 12.6 to 63.1 nM. The “cIAP2 BIR3 vs BIR2 separation window” value at cIAP2-BIR3 is given as “+++ (10,000>FS>1,000)”.
In the case of `Cc1c(NC(=O)[C@@H]2CN(C[C@H]3CN[C@H](C)CN3CC(=O)N3CC(C)(C)c4[nH]c(=O)c(Cc5ccc(F)cc5)cc43)CCO2)cccc1NC(=O)[C@@H]1CN(C[C@H]2CN[C@H](C)CN2CC(=O)N2CC(C)(C)c3[nH]c(=O)c(Cc4ccc(F)cc4)cc32)CCO1` [Compound 141, (2S,2′S)-N,N′-(2-methyl-1,3-phenylene)bis(4-(((2R,5R)-1-(2-(6-(4-fluorobenzyl)-3,3-dimethyl-5-oxo-2,3,4,5-tetrahydro-1H-pyrrolo[3,2-b]pyridin-1-yl)-2-oxoethyl)-5-methylpiperazin-2-yl)methyl)morpholine-2-carboxamide)], the pIC50 on cIAP1-BIR2 is 5.50 to 6.00; at XIAP-BIR3, 7.50 to 7.80; at cIAP1-BIR3, 7.80 to 8.10; at cIAP2-BIR2 it was 5.50 to 6.00; at cIAP2-BIR3, 7.80 to 8.10. The “XIAP BIR3 vs BIR2 separation window” value on XIAP-BIR3 was “+++ (10,000>FS>1,000)”. Also, the IC50 at XIAP-BIR2 (FRET competition) was 10000 to 51300 nM. The “cIAP1 BIR3 vs BIR2 separation window” value at cIAP1-BIR3 is on record as “+++ (10,000>FS>1,000)”. The EC50 in assay [1] is 12.6 to 63.1 nM. Besides, the “cIAP2 BIR3 vs BIR2 separation window” value on cIAP2-BIR3 is listed as “+++ (10,000>FS>1,000)”.
With `C[C@@H]1CN(CC(=O)N2CC(C)(C)c3[nH]c(=O)c(Cc4ccc(F)cc4)cc32)[C@@H](CN2CCO[C@H](C(=O)NCC3CCN(C(=O)[C@@H]4CN(C[C@H]5CN[C@H](C)CN5CC(=O)N5CC(C)(C)c6[nH]c(=O)c(Cc7ccc(F)cc7)cc65)CCO4)CC3)C2)CN1` [Compound 133, (S)-4-(((2R,5R)-1-(2-(6-(4-fluorobenzyl)-3,3-dimethyl-5-oxo-2,3,4,5-tetrahydro-1H-pyrrolo[3,2-b]pyridin-1-yl)-2-oxoethyl)-5-methylpiperazin-2-yl)methyl)-N-((1-((S)-4-(((2R,5R)-1-(2-(6-(4-fluorobenzyl)-3,3-dimethyl-5-oxo-2,3,4,5-tetrahydro-1H-pyrrolo[3,2-b]pyridin-1-yl)-2-oxoethyl)-5-methylpiperazin-2-yl)methyl)morpholine-2-carbonyl)piperidin-4-yl)methyl)morpholine-2-carboxamide], the pIC50 is 5.50 to 6.00 at cIAP1-BIR2; 7.50 to 7.80 at XIAP-BIR3; 6.30 to 7.50 on cIAP1-BIR3; 5.00 to 5.50 on cIAP2-BIR2; 7.80 to 8.10 on cIAP2-BIR3. Also, at XIAP-BIR3, the “XIAP BIR3 vs BIR2 separation window” value was “++++ (FS>10,000)”. In addition, the IC50 on XIAP-BIR2 (FRET competition) is 10000 to 51300 nM. In addition, the “cIAP1 BIR3 vs BIR2 separation window” value on cIAP1-BIR3 is “++ (1,000>FS>100)”. Besides, the EC50 in assay [1] was 63.1 to 316 nM. Further, the “cIAP2 BIR3 vs BIR2 separation window” value on cIAP2-BIR3 is recorded as “+++ (10,000>FS>1,000)”.
For `C[C@@H]1CN(CC(=O)N2CC(C)(C)c3[nH]c(=O)c(Cc4ccc(F)cc4)cc32)[C@@H](CN2CCN(C(=O)Cc3ccccc3CC(=O)N3CCN(C[C@H]4CN[C@H](C)CN4CC(=O)N4CC(C)(C)c5[nH]c(=O)c(Cc6ccc(F)cc6)cc54)[C@H](C)C3)C[C@H]2C)CN1` [Example 7, 1,1′-(2,2′-((3R,3′R,6R,6′R)-(((2R,2′R)-(2,2′-(1,2-phenylene)bis(acetyl))bis(2-methylpiperazine-4,1-diyl))bis(methylene))bis(3-methylpiperazine-6,1-diyl))bis(acetyl))bis(6-(4-fluorobenzyl)-3,3-dimethyl-1,2,3,4-tetrahydro-5H-pyrrolo[3,2-b]pyridin-5-one)], the pIC50 at cIAP1-BIR2 was 6.00 to 7.65; on XIAP-BIR3, 7.50 to 7.80; at cIAP1-BIR3 it was 7.50 to 7.80; on cIAP2-BIR2 it was 6.00 to 7.65; on cIAP2-BIR3, 7.50 to 7.80. In addition, the IC50 on XIAP-BIR2 (FRET competition binding) was 1000 to 3160 nM. In addition, the EC50 in assay [1] was 63.1 to 316 nM.

As usually defined, the pIC50 is the IC50 on a negative log10 scale, so that one unit is a factor of ten.
